According to US20250179055A1, “Substituted 2-(pyrrolidine-3-yl)acetic acid derivative, preparation method and use thereof” (INNOVSTONE THERAPEUTICS LIMITED, priority 2023, published 2025):

Experiments:
[1] = biological target: Lp(a) assembly in HepG2 cells overexpressing ApoA protein (Homo sapiens (Human), UniProt P08519); experiment: ELISA assay on screening Lp(a) assembly inhibition; format: cell-based; conditions: HepG2 cells overexpressing ApoA protein, 24 h, ELISA of supernatant
Procedure: Test Example 1 and Methods of ELISA Assay on Screening Lp(a) Assembly Inhibition
• 1) Preheated the culture media, DPBS, and pancreatin in a 37° C. water bath in advance. • 2) Digested cells with pancreatin, transferred the cell suspension to a 15 mL centrifuge tube, and centrifuged at 1000 rpm for 5 min. • 3) Resuspended the cells with culture media and transferred the cell suspension to a new T75 cell culture flask. • 4) Cultured at 37° C. in a 5% CO2 incubator.
• 1) Seeded HepG2 cells overexpressing of ApoA protein into a 96-well plate at 100 μL per well and incubated overnight for attachment. • 2) Replaced with fresh culture media the next day, then added diluted compounds, and cultured the cell plate in a 5% CO2, 37° C. incubator for 24 h.
• 1) Added 10 μL of 1.5 M EACA to each well. • 2) Centrifuged at 1000 rpm for 1 min, and transferred 100 μL of cell culture supernatant to a pre-coated ELISA plate.
• 1) Added 100 μL of capture antibody to each well of a pre-coated ELISA plate and incubated overnight at 25° C. • 2) Added 300 μL of washing solution to each well and washed 5 times for 1 min each time. • 3) Added 100 μL of blocking solution to each well and incubated at 25° C. for 2 h. • 4) Added 300 μL of washing solution to each well and washed 5 times for 1 min each time. • 5) Added 100 μL of sample to each well and incubated at 25° C. for 1 h. • 6) Added 300 μL of washing solution to each well and washed 5 times for 1 min each time. • 7) Added 100 μL of detection antibody to each well and incubated at 25° C. for 1 h. • 8) Added 300 μL of washing solution to each well and washed 5 times for 1 min each time. • 9) Added 100 μL substrate solution (Color Reagent A: Color Reagent B, 1:1) to each well and incubated for 20 min at 25° C. in the dark. • 10) Added […] of stop solution to each well, gently blowed and sucked several times with the pipette tip, and read within 5 min.
[formula] • X: cpd concentration • Y: inhibition % • Top and Bottom: Plateaus in same units as Y • log IC50: same log units as X • HillSlope: Slope factor or Hill slope

serum Lp(a) = experiment: Humanized mouse Lp(a) inhibition test; format: in vivo, humanized Lp(a) transgenic mouse; conditions: 5 mg/kg oral once daily for 3 days, blood 8 h after last dose, humanized Lp(a) mice
Procedure: The in vivo pharmacodynamics of the compounds in reducing Lp(a) was evaluated in a humanized Lp(a) transgenic mouse model. Lp(a) mice were obtained by crossing mice expressing humanized apoB-100 with mice expressing humanized apo(a) containing 16 Kringle repeats. Female mice aged 8-9 weeks were selected for the test. Housing conditions: standard light cycle (12 h light/12 h dark), temperature 20-25° C., humidity 40-70%, free access to water and normal diet. is One day before the test, mice were divided into vehicle control group and test article group (n=5/group) according to body weight and baseline plasma Lp(a) concentration. Mice were orally administered with vehicle (normal saline, 10 mL/kg) or test compound (prepared with normal saline to 3 or 0.5 mg/mL, each mouse received 10 mL/kg), once daily (9:00 am) for 3 consecutive days, and blood was collected to determine the change of serum Lp(a). Eight hours after the last dose, 10 μL of blood was collected from the tail vein and transferred to a 1.5 mL centrifuge tube containing 90 μL of normal saline, mixed well, and left to stand on ice for 30 min. The above samples were centrifuged at 4° C., 3000 rpm for 10 min, and the supernatant was collected and placed on ice. The Lp(a) concentration in the supernatant was measured by double-antibody sandwich ELISA using an anti-apo(a) capture antibody and an HRP-conjugated anti-ApoB detection antibody, with TMB for color development. The reaction was stopped with 1 N sulfuric acid, and the OD value was read at 450 nm on a Tecan microplate reader. Inhibition rate was calculated for each dosing group. Inhibition rate (%)=(vehicle control group Lp(a) concentration or self pre-dose Lp(a) concentration post-dose Lp(a) concentration)/vehicle control group Lp(a) concentration or self pre-dose Lp(a) concentration*100.

Chain of Lp(a) assembly in HepG2 cells overexpressing ApoA protein (P08519 20-2040): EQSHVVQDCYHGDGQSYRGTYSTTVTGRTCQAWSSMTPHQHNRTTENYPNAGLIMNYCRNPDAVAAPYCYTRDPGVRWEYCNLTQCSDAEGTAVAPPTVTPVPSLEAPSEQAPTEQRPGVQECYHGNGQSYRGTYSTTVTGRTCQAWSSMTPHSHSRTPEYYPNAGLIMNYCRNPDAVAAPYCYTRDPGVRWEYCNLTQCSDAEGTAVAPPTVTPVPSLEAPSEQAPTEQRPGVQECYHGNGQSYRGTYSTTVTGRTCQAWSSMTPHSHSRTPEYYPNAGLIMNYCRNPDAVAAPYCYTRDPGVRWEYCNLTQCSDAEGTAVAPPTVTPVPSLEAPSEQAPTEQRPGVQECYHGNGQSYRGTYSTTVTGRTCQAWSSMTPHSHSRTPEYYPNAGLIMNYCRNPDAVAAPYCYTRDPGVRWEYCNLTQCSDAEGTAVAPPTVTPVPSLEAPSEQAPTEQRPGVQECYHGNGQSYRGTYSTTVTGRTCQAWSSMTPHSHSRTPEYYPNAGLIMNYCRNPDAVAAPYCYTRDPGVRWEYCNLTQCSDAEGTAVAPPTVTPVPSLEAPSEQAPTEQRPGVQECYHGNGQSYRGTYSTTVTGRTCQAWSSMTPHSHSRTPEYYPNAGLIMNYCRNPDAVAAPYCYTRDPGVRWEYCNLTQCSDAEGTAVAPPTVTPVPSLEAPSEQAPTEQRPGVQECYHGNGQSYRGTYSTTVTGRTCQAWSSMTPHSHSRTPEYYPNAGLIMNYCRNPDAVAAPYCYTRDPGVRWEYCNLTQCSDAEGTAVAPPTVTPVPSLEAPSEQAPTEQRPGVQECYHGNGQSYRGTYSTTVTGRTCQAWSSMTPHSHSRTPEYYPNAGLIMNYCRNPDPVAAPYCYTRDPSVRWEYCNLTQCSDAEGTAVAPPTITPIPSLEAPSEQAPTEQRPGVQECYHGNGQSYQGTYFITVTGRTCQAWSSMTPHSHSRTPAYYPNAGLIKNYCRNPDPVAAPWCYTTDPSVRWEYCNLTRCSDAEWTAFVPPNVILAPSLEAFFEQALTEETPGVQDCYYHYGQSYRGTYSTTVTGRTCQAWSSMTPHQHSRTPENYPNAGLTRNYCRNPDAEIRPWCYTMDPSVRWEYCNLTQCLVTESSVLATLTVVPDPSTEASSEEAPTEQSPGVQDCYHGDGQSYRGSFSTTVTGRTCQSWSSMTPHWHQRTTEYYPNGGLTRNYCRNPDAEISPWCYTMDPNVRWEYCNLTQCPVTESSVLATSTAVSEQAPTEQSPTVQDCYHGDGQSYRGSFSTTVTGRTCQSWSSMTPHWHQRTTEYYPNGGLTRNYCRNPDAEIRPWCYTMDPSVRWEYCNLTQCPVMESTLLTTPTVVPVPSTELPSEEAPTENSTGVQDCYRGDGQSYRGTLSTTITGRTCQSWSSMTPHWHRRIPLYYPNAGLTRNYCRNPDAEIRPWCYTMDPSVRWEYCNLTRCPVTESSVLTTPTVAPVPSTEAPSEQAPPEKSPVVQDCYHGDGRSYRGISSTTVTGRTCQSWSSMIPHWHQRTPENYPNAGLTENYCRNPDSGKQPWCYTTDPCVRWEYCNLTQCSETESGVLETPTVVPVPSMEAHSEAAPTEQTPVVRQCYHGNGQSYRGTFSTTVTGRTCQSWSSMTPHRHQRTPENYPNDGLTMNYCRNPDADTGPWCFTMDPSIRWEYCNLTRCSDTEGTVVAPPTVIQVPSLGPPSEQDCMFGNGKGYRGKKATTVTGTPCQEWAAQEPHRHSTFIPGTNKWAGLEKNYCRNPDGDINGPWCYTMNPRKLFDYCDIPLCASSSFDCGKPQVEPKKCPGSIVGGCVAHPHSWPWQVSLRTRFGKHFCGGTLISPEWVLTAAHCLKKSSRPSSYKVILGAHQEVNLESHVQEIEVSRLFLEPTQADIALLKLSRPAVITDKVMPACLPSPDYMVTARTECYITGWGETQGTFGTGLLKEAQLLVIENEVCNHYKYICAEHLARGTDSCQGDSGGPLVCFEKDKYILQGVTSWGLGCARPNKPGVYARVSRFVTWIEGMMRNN

| SMILES | IC50 [1] [nM] | Lp(a) Inhibition Rate (serum Lp(a)) [%] |
| --- | --- | --- |
| O=C(O)[C@@H](Cc1cccc(CN(CCOc2cccc(C[C@H](C(=O)O)[C@H]3CCNC3)c2)C(=O)Oc2cccc(C[C@H](C(=O)O)[C@H]3CCNC3)c2)c1)[C@H]1CCNC1 [Compound 139, (S)-3-(3-(2-((3-((S)-2-carboxy-2-((R)-pyrrolidin-3-yl)ethyl)benzyl)((3-((S)-2-carboxy-2-((R)-pyrrolidin-3-yl)ethyl)phenoxy)carbonyl)amino)ethoxy)phenyl)-2-((R)-pyrrolidin-3-yl)propanoic acid] | 0.66 | – |
| O=C(O)[C@@H](Cc1cccc(CCC(=O)N(CCOc2cccc(C[C@H](C(=O)O)[C@H]3CCNC3)c2)Cc2cccc(C[C@H](C(=O)O)[C@H]3CCNC3)c2)c1)[C@H]1CCNC1 [Compound 140, (S)-3-(3-(3-((3-((S)-2-carboxy-2-((R)-pyrrolidin-3-yl)ethyl)benzyl)(2-(3-((S)-2-carboxy-2-((R)-pyrrolidin-3-yl)ethyl)phenoxy)ethyl)amino)-3-oxopropyl)phenyl)-2-((R)-pyrrolidin-3-yl)propanoic acid] | 0.79 | – |
| O=C(O)[C@@H](Cc1cccc(CNC(=O)N(CCOc2cccc(C[C@H](C(=O)O)[C@H]3CCNC3)c2)Cc2cccc(C[C@H](C(=O)O)[C@H]3CCNC3)c2)c1)[C@H]1CCNC1 [Compound 141, (S)-3-(3-(2-(1,3-bis(3-((S)-2-carboxy-2-((R)-pyrrolidin-3-yl)ethyl)benzyl)ureido)ethoxy)phenyl)-2-((R)-pyrrolidin-3-yl)propanoic acid] | 1.02 | – |
| O=C(Cc1cccc(C[C@H](C(=O)O)[C@H]2CCNC2)c1)NCCOc1cccc(C[C@H](C(=O)O)[C@H]2CCNC2)c1 [Compound 142, (S)-3-(3-(2-((2-(3-((S)-2-carboxy-2-((R)-pyrrolidin-3-yl)ethyl)phenoxy)ethyl)amino)-2-oxoethyl)phenyl)-2-((R)-pyrrolidin-3-yl)propanoic acid] | 3.19 | – |
| O=C(O)[C@@H](Cc1noc2cc(CN(Cc3ccc4c(C[C@H](C(=O)O)[C@H]5CCNC5)noc4c3)Cc3ccc4c(C[C@H](C(=O)O)[C@H]5CCNC5)noc4c3)ccc12)[C@H]1CCNC1 [Compound 144, (2S,2′S,2″S)-3,3′,3″-((nitrilotris(methylene))tris(benzo[d]isoxazole-6,3-diyl))tris(2-((R)-pyrrolidin-3-yl)propanoic acid)] | 1.18 | – |
| O=C(O)[C@@H](Cc1cccc(COC(=O)N(CCOc2cccc(C[C@H](C(=O)O)[C@H]3CCNC3)c2)Cc2cccc(C[C@H](C(=O)O)[C@H]3CCNC3)c2)c1)[C@H]1CCNC1 [Compound 145, (S)-3-(3-(2-((3-((S)-2-carboxy-2-((R)-pyrrolidin-3-yl)ethyl)benzyl)(((3-((S)-2-carboxy-2-((R)-pyrrolidin-3-yl)ethyl)benzyl)oxy)carbonyl)amino)ethoxy)phenyl)-2-((R)-pyrrolidin-3-yl)propanoic acid] | 1.72 | – |
| O=C(O)[C@@H](Cc1cccc(CC(=O)N(CCNc2cccc(C[C@H](C(=O)O)[C@H]3CCNC3)c2)Cc2cccc(C[C@H](C(=O)O)[C@H]3CCNC3)c2)c1)[C@H]1CCNC1 [Compound 146, (S)-3-(3-(2-((3-((S)-2-carboxy-2-((R)-pyrrolidin-3-yl)ethyl)benzyl)(2-((3-((S)-2-carboxy-2-((R)-pyrrolidin-3-yl)ethyl)phenyl)amino)ethyl)amino)-2-oxoethyl)phenyl)-2-((R)-pyrrolidin-3-yl)propanoic acid] | 0.93 | – |
| O=C(O)[C@@H](Cc1cccc(CCC(=O)N(CCNc2cccc(C[C@H](C(=O)O)[C@H]3CCNC3)c2)Cc2cccc(C[C@H](C(=O)O)[C@H]3CCNC3)c2)c1)[C@H]1CCNC1 [Compound 147, (S)-3-(3-(3-((3-((S)-2-carboxy-2-((R)-pyrrolidin-3-yl)ethyl)benzyl)(2-((3-((S)-2-carboxy-2-((R)-pyrrolidin-3-yl)ethyl)phenyl)amino)ethyl)amino)-3-oxopropyl)phenyl)-2-((R)-pyrrolidin-3-yl)propanoic acid] | 0.86 | – |
| O=C(O)[C@@H](Cc1cccc(CCC(=O)N(CCOc2cccc(C[C@H](C(=O)O)[C@H]3CCNC3)c2)CCOc2cccc(C[C@H](C(=O)O)[C@H]3CCNC3)c2)c1)[C@H]1CCNC1 [Compound 148, (2S,2′S)-3,3′-(((((3-(3-((S)-2-carboxy-2-((R)-pyrrolidin-3-yl)ethyl)phenyl)propanoyl)azanediyl)bis(ethane-2,1-diyl))bis(oxy))bis(3,1-phenylene))bis(2-((R)-pyrrolidin-3-yl)propanoic acid)] | 1.5 | – |
| O=C(O)[C@@H](Cc1cccc(OCc2cc(COc3cccc(C[C@H](C(=O)O)[C@H]4CCNC4)c3)cc(COc3cccc(C[C@H](C(=O)O)[C@H]4CCNC4)c3)c2)c1)[C@H]1CCNC1 [Compound 149, (2S,2′S,2″S)-3,3′,3″-(((benzene-1,3,5-triyltris(methylene))tris(oxy))tris(benzene-3,1-diyl))tris(2-((R)-pyrrolidin-3-yl)propanoic acid)] | 2.53 | – |
| O=C(O)[C@@H](Cc1cncc(CC(=O)N(CCOc2cncc(C[C@H](C(=O)O)[C@H]3CCNC3)c2)Cc2cncc(C[C@H](C(=O)O)[C@H]3CCNC3)c2)c1)[C@H]1CCNC1 [Compound 153, (S)-3-(5-(2-(2-(5-((S)-2-carboxy-2-((R)-pyrrolidin-3-yl)ethyl)pyridin-3-yl)-N-((5-((S)-2-carboxy-2-((R)-pyrrolidin-3-yl)ethyl)pyridin-3-yl)methyl)acetamido)ethoxy)pyridin-3-yl)-2-((R)-pyrrolidin-3-yl)propanoic acid] | 2.91 | – |
| O=C(O)[C@@H](Cc1cccc(CC(=O)N(CCSc2cccc(C[C@H](C(=O)O)[C@H]3CCNC3)c2)Cc2cccc(C[C@H](C(=O)O)[C@H]3CCNC3)c2)c1)[C@H]1CCNC1 [Compound 158, (S)-3-(3-(2-((3-((S)-2-carboxy-2-((R)-pyrrolidin-3-yl)ethyl)benzyl)(2-((3-((S)-2-carboxy-2-((R)-pyrrolidin-3-yl)ethyl)phenyl)thio)ethyl)amino)-2-oxoethyl)phenyl)-2-((R)-pyrrolidin-3-yl)propanoic acid] | 1.65 | – |
| O=C(O)[C@@H](Cc1cccc(CCN(CCOc2cccc(C[C@H](C(=O)O)[C@H]3CCNC3)c2)C(=O)Oc2cccc(C[C@H](C(=O)O)[C@H]3CCNC3)c2)c1)[C@H]1CCNC1 [Compound 162, (S)-3-(3-(2-((3-((S)-2-carboxy-2-((R)-pyrrolidin-3-yl)ethyl)phenethyl)((3-((S)-2-carboxy-2-((R)-pyrrolidin-3-yl)ethyl)phenoxy)carbonyl)amino)ethoxy)phenyl)-2-((R)-pyrrolidin-3-yl)propanoic acid] | – | 79 |
| O=C(O)[C@@H](Cc1cccc(CC(=O)N(CCOc2cccc(C[C@H](C(=O)O)[C@@H]3CCNC3)c2)Cc2cccc(C[C@H](C(=O)O)[C@@H]3CCNC3)c2)c1)[C@@H]1CCNC1 [Compound 210, (S)-3-(3-(2-((3-((S)-2-carboxy-2-((S)-pyrrolidin-3-yl)ethyl)benzyl)(2-(3-((S)-2-carboxy-2-((S)-pyrrolidin-3-yl)ethyl)phenoxy)ethyl)amino)-2-oxoethyl)phenyl)-2-((S)-pyrrolidin-3-yl)propanoic acid] | 1.52 | – |
